In ChEMBL document CHEMBL5726221, “4,6-substituted-pyrazolo[1,5-a]pyrazines as janus kinase inhibitors” (2019):

Columns and labels:
[1] = target: T1, Tyrosine-protein kinase JAK3 (Homo sapiens, UniProt P52333); experiment: JAK3 Inhibition Assay: Compounds of Formula I were screened for their ability to inhibit JAK3 using the general enzyme inhibition assay method, in which the assay mixture contained 1 mM ATP, 10 μM Omnia® Y7 peptide (Catalog # IVGN KNZ3071C, Invitrogen Corporation, Carlsbad, Calif.) and 2 nM JAK3 in a total volume of 25 μL. JAK3 was purchased from Invitrogen Corporation, Carlsbad, Calif. (catalog # IVGN PV4080).
T1 sequence (P52333 whole entry): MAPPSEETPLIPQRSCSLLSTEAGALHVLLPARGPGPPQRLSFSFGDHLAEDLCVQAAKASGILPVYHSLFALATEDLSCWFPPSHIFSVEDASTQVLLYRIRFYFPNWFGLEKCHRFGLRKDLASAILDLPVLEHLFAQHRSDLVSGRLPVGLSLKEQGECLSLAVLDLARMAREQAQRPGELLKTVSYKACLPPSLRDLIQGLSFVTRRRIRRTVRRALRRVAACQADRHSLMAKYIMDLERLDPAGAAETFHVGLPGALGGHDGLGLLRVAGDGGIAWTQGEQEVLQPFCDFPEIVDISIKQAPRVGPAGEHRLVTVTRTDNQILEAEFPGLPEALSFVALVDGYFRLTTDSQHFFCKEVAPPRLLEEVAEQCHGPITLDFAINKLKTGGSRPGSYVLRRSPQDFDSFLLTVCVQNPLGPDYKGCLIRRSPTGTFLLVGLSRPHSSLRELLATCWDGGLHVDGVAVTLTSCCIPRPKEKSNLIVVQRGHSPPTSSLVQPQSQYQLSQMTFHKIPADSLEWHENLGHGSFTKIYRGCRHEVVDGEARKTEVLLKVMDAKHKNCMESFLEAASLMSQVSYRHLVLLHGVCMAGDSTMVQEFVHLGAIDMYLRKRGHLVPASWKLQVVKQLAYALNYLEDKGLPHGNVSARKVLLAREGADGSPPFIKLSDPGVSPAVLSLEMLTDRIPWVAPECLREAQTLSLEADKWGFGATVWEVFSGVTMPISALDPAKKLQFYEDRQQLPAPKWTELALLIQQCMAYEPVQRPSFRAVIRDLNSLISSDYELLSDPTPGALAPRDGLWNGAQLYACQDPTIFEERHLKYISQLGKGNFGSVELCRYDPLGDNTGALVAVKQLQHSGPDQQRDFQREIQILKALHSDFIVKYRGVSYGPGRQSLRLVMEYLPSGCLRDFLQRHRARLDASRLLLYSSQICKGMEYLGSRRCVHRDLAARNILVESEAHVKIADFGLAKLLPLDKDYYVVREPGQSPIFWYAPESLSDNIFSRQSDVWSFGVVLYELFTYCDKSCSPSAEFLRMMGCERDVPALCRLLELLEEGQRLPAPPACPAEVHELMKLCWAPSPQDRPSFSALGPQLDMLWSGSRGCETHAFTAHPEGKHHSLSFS

[2] = target: Non-receptor tyrosine-protein kinase TYK2 (Homo sapiens, UniProt P29597); experiment: Tyk2 Inhibition Assay: Compounds of Formula I were screened for their ability to inhibit Tyk2 using the general enzyme inhibition assay method, in which the assay mixture contained 1 mM ATP, 8 μM Omnia Y12 peptide (Catalog # IVGN KPZ3121C; Invitrogen Corporation, Carlsbad, Calif.) and 1 nM Tyk2 in a total volume of 25 μL. Human Tyk2 kinase domain, comprising amino acids 886 to 1187 with 10 additional histidine residues (histidine tag) on the carboxy terminus, was expressed and purified from bacculovirus in-house at Array BioPharma Inc. (Boulder, Colo.). The histidine tag was cleaved after purification using standard conditions.
Sequence of Non-receptor tyrosine-protein kinase TYK2 (P29597 whole entry, the tested form may be a part): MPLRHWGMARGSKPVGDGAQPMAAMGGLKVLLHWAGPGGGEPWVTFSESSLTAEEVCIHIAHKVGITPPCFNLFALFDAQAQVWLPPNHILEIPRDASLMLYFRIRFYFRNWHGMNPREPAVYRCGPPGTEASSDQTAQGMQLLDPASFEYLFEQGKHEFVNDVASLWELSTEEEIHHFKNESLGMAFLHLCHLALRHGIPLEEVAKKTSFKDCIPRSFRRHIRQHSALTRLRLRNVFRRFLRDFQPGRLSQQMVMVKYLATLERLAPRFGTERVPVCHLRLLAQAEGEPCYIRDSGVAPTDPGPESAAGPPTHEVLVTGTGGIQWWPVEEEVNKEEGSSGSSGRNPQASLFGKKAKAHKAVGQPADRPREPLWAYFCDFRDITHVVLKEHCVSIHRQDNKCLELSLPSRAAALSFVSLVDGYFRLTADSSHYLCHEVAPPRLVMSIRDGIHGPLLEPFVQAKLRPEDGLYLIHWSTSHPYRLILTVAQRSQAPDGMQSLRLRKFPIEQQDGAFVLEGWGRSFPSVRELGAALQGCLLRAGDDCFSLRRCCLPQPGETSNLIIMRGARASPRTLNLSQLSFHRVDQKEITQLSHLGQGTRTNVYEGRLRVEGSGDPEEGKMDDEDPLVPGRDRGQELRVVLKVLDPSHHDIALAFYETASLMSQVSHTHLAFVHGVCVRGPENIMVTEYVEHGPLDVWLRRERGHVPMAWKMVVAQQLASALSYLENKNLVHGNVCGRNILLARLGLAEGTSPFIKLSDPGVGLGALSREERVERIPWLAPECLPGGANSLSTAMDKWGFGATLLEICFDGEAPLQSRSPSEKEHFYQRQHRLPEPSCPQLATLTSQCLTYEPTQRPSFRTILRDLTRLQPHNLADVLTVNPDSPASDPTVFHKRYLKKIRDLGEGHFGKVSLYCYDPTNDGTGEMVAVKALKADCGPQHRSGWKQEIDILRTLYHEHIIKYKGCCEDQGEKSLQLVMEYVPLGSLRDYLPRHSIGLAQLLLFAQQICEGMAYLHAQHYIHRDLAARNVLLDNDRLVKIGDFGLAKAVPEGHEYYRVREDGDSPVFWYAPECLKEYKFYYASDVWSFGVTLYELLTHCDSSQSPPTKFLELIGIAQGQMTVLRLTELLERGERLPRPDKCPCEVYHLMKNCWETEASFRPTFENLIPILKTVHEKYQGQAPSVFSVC

| Structure (SMILES) | IC50 [1] | IC50 [2] |
| --- | --- | --- |
| CCC(CC)n1cc(-c2nc(-c3cnn([C@H]4C[C@@](O)(CO)C4)c3)cn3nccc23)cn1 | in the range around 5.5 µM |  |
| CCC(CC)n1cc(-c2nc(-c3cnn(CC4CC(CO)C4)c3)cn3nccc23)cn1 (centres undefined) | in the range around 5.5 µM |  |
| CCC(CC)n1cc(-c2nc(-c3cnn([C@H]4C[C@@H](O)[C@@H](O)C4)c3)cn3nccc23)cn1 | in the range around 5.5 µM | in the range around 0.055 µM |
